Test [1] deals with T1, Adenosine receptor A2a (Homo sapiens, UniProt P29274). Nature of the test: Displacement of [3H]NECA from human adenosine A2A receptor expressed in CHO cells. The test is classed as cell-based. In general terms: In a radioligand displacement assay an active substance lowers the binding of a labelled ligand.
The target of test [2] is T2, Adenosine receptor A1 (Homo sapiens, UniProt P30542).
T2 sequence (P30542 whole entry): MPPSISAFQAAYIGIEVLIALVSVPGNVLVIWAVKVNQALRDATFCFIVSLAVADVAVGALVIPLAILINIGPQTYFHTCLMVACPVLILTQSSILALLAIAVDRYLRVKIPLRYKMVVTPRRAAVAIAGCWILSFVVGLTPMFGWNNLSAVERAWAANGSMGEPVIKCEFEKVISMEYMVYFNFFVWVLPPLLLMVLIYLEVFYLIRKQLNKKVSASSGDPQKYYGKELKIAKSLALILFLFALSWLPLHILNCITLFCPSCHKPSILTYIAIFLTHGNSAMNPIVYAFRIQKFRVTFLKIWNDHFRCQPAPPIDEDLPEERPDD
Nature of the test: Displacement of [3H]CCPA from human adenosine A1 receptor expressed in CHO cells. The test is classed as cell-based.

The target of test [3] is T3, Adenosine receptor A2b (Homo sapiens, UniProt P29275).
T3 sequence (P29275 whole entry): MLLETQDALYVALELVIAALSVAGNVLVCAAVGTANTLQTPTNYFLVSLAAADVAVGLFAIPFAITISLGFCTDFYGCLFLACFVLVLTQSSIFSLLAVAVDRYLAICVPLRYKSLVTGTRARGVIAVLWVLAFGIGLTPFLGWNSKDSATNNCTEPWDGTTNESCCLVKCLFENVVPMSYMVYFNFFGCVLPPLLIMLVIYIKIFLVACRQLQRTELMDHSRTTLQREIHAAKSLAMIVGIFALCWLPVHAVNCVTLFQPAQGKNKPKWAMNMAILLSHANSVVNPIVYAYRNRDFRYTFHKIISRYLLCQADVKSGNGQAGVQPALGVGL
Nature of the test: Antagonist activity at human adenosine A2B receptor expressed in CHO cells assessed as inhibition of NECA-stimulated adenylyl cyclase activity. The class given is functional, cell-based.

Test [4] deals with T4, Adenosine receptor A3 (Homo sapiens, UniProt P0DMS8). The test can be described thus: Displacement of [3H]HEMADO from human adenosine A3 receptor expressed in CHO cells. The class given is cell-based.
T4 sequence (P0DMS8 whole entry, looked up): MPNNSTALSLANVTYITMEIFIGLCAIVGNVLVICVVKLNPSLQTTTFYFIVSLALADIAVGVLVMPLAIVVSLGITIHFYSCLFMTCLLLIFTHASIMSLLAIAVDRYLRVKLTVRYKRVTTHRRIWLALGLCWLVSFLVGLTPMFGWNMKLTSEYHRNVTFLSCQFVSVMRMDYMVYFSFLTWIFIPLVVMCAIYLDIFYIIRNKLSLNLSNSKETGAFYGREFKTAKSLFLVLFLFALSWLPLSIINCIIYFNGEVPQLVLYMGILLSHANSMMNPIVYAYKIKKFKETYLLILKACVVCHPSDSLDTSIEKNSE
Test [5] is filed under the species Homo sapiens. Nature of the test: Selectivity ratio of Ki for adenosine A1 receptor (unknown origin) to Ki for adenosine A2A receptor (unknown origin).
Test [6] deals with T1, Adenosine receptor A2a. Nature of the test: Binding affinity to adenosine A2A receptor (unknown origin).
The target in test [7] is T2, Adenosine receptor A1. Nature of the test: Binding affinity to adenosine A1 receptor (unknown origin).
Test [8] addresses T4, Adenosine receptor A3. The test can be described thus: Binding affinity to adenosine A3 receptor (unknown origin).
The target of test [9] is T3, Adenosine receptor A2b. Nature of the test: Binding affinity to adenosine A2B receptor (unknown origin).

T1 sequence (P29274 whole entry): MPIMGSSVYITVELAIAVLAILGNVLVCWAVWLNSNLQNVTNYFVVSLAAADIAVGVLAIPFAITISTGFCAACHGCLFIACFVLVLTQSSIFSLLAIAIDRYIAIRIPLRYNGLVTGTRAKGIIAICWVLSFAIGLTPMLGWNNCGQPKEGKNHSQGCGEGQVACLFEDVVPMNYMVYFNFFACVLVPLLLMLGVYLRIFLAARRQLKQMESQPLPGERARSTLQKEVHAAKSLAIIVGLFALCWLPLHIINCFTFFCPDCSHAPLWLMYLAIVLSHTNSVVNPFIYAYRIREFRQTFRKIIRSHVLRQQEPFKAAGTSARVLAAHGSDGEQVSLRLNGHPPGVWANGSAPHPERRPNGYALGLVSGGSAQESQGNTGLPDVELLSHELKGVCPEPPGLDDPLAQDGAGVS

As for `CCCn1cnc2c(N)nc(NCCc3ccccc3)nc21`, the inhibition constant Ki (as a rule, a dissociation constant, usually derived from enzyme kinetics or from competition with a known ligand) in test [1] was 738 nM; in test [2], 2330 nM; in [3], 9250 nM; in test [4] it was 5880 nM.
For the compound `CCCn1c(Br)nc2c(N)ncnc21`, the Ki in test [4] was > 100000 nM.
As to `CCCn1c(Br)nc2c(NCCCc3ccccc3)ncnc21`, the Ki in [1] was found to be 1020 nM; in test [2], 2670 nM; in test [3] it was 1760 nM; in [4], 12200 nM.
Taken in the same sequence, the figures for `CCCn1c(-c2ccco2)nc2c(N)nc(NCc3ccccc3)nc21` were 6.6 nM, 138 nM, 4610 nM and 29 nM.
Consider `CCn1c(-c2ccco2)nc2c(N)ncnc21`, for which the Ratio Ki in [5] came to 6.
Consider `CCCn1c(Br)nc2c(NCCc3ccccc3)ncnc21`, for which the Ki in test [1] was found to be 503 nM; in test [2] it was 1940 nM; in [3], 3190 nM; in [4], 2520 nM.
As to `CCCn1c(-c2ccco2)nc2c(N)nc(NCCCc3ccccc3)nc21`, the Ki in test [1] is 113 nM; in [2], 230 nM; in [3] it was 8240 nM; in [4], 266 nM.
Consider `CCCn1c(Br)nc2c(NCc3ccccc3)ncnc21`, for which the Ki in test [1] was 1180 nM; in test [2], 5620 nM; in [3] it was 7490 nM; in [4] it was 11100 nM.
Taken in the same sequence, the figures for `CCCn1cnc2c(N)nc(NCCCc3ccccc3)nc21` were 9110 nM, 3640 nM, > 30000 nM and 12600 nM.
`CCCn1cnc2c(N)nc(NCc3ccccc3)nc21`: the Ki was 1400 nM in test [1], 7600 nM in [2], > 30000 nM in test [3] and 5840 nM in test [4].
For the compound `CCn1cnc2c(N)nc(NCCc3ccccc3)nc21`, the Ki in [6] is 150 nM; in test [7], 330 nM; in test [8] it was 3200 nM; in [9] it was 2410 nM.
Regarding `CCCn1cnc2c(NCCCc3ccccc3)ncnc21`, the Ki in test [1] was 13000 nM; in test [2], 18600 nM; in test [3] it was > 30000 nM; in test [4] it was 30000 nM.
For `CCCn1c(-c2ccco2)nc2c(NCCCc3ccccc3)ncnc21`, in that order: 181 nM, 378 nM, 1870 nM and 959 nM.
Taken in the same sequence, the figures for `CCCn1c(-c2ccco2)nc2c(NCCc3ccccc3)ncnc21` were 547 nM, 2440 nM, 9280 nM and 811 nM.
Taken in the same sequence, the figures for `CCCn1c(-c2ccco2)nc2c(NCc3ccccc3)ncnc21` were 80 nM, 546 nM, 1760 nM and 402 nM.
In the case of `CCn1cnc2c(NCCc3ccccc3)ncnc21`, the Ki in test [6] turned out to be 1340 nM; in test [7], 8730 nM; in test [8], 10800 nM; in test [9] it was 8130 nM.
On to `CCCn1c(-c2ccco2)nc2c(N)nc(NCCc3ccccc3)nc21`, for which the Ki in test [1] came to 14 nM; in test [2] it was 80 nM; in test [3], 2030 nM; in [4] it was 56 nM.
Taken in the same sequence, the figures for `CCCn1cnc2c(NCCc3ccccc3)ncnc21` were 12000 nM, 19200 nM, > 30000 nM and 16900 nM.
Taken in the same sequence, the figures for `CCCn1cnc2c(NCc3ccccc3)ncnc21` were 22600 nM, 42800 nM, > 30000 nM and 29100 nM.
For `CCCn1c(Br)nc2c(N)nc(NCc3ccccc3)nc21`, in that order: 36 nM, 358 nM, 1740 nM and 650 nM.
On to `CCCn1c(Br)nc2c(N)nc(NCCCc3ccccc3)nc21`, for which the inhibition constant Ki worked out at 284 nM in [1], 583 nM in [2], 6300 nM in test [3] and 1950 nM in [4].
For `CCCn1c(Br)nc2c(N)nc(NCCc3ccccc3)nc21`, in that order: 27 nM, 373 nM, 1490 nM and 1160 nM.
As for `CCCn1cnc2c(N)ncnc21`, in test [4], the Ki was > 100000 nM.

Source of the values: ChEMBL document CHEMBL3739359, “New substituted 9-propyladenine derivatives as A2Aadenosine receptor antagonists” (Medchemcomm, 2015).
